Tests used:
uninfected cells = test: Cytotoxicity assay of drug combinations, uninfected cells, XTT assay; assay type: cell-based; details: combination with Compound 1 at the highest concentrations tested, 6 days
Experimental: Drug Susceptibility and Cytotoxicity Assays. […] Each drug ratio consisted of an array of 3-fold serial dilutions, and was performed in quadruplicate. The plates were incubated at 37° C./5% CO2. […] On day-five post-infection, 20 μl from each well was harvested and quantitated by a reverse transcriptase (RT) assay, or in samples involving non-nucleoside RT inhibitors, an MTS assay. The PM-1 cells infected with HIV-1 Bal and used for studying the combinations with CCR5 inhibitors were incubated for six days. On day-six post-infection, 20 μl from each well was harvested, 20- and 50-fold diluted and quantitated by p24 assay. Cytotoxicity assays were performed using uninfected cells, exposed to the same drug combinations, and incubated for six days. Cell viability was determined by an XTT assay. The CC50 values were calculated by using the exponential form of the median effect equation as mentioned below for calculation of EC50.

HIV-1 LAI = test: microbe, parasite or virus in culture; details: for Combination Indices at % HIV Inhibition (Confidence Interval) 50%: 50% HIV inhibition; for Combination Indices at % HIV Inhibition (Confidence Interval) 50% / Combination Indices at % HIV Inhibition (Confidence Interval) 75% / Combination Indices at % HIV Inhibition (Confidence Interval) 90%: 95% CI in parenthesis; for Combination Indices at % HIV Inhibition (Confidence Interval) 75%: 75% HIV inhibition; for Combination Indices at % HIV Inhibition (Confidence Interval) 90%: 90% HIV inhibition
[1] = combination with Compound 1, EC50 ratio 1:1 (Compound 1:comparator)
[2] = combination with Compound 1, EC50 ratio 1:1
[3] = combination with Compound 1, EC50 ratio 1:2.5
[4] = combination with Compound 1, EC50 ratio 2.5:1

| Compound | cytotoxicity of the drug combination (uninfected cells) | Combination Indices at % HIV Inhibition (Confidence Interval) 50% (HIV-1 LAI; [1]) | Combination Indices at % HIV Inhibition (Confidence Interval) 75% (HIV-1 LAI; [2]) | Combination Indices at % HIV Inhibition (Confidence Interval) 90% (HIV-1 LAI; [2]) | Combination Indices at % HIV Inhibition (Confidence Interval) 50% (HIV-1 LAI; [3]) | Combination Indices at % HIV Inhibition (Confidence Interval) 75% (HIV-1 LAI; [3]) | Combination Indices at % HIV Inhibition (Confidence Interval) 90% (HIV-1 LAI; [3]) | Combination Indices at % HIV Inhibition (Confidence Interval) 50% (HIV-1 LAI; [4]) | Combination Indices at % HIV Inhibition (Confidence Interval) 75% (HIV-1 LAI; [4]) | Combination Indices at % HIV Inhibition (Confidence Interval) 90% (HIV-1 LAI; [4]) | EC50 (HIV-1 LAI; single drug, MT-2 cells, HIV-1 LAI, MOI 0.005, 5 days, RT assay) [nM] | EC50 (HIV-1 LAI; Human immunodeficiency virus 1, MT2, 120 h) [nM] |
| --- | --- | --- | --- | --- | --- | --- | --- | --- | --- | --- | --- | --- |
| enfuvirtide | No significant cytotoxicity | 0.53 (0.46, 0.59) | 0.51 (0.42, 0.59) | 0.57 (0.42, 0.72) | 0.27 (0.21, 0.32) | 0.32 (0.22, 0.42) | 0.43 (0.22, 0.64) | 0.41 (0.30, 0.51) | 0.57 (0.37, 0.78) | 0.90 (0.36, 1.44) | 3 | – |
| CON(Cc1ccc(F)cc1)C(=O)C=C(O)C(=O)O [Compound 2, 3-[(4-fluorobenzyl)methoxycarbamoyl]-2-hydroxyacrylic acid] | No significant cytotoxicity | 0.92 (0.77, 1.06) | 0.90 (0.70, 1.10) | 0.89 (0.58, 1.21) | 0.71 (0.60, 0.82) | 0.66 (0.51, 0.80) | 0.61 (0.40, 0.82) | 0.41 (0.36, 0.47) | 0.41 (0.33, 0.48) | 0.40 (0.28, 0.52) | – | 39 |

From patent US20050215543A1, “Methods of treating HIV infection” (priority 2004, published 2005)
